Measured values taken from patent US20130156795A1, “METHODS FOR INHIBITION OF CELL PROLIFERATION, SYNERGISTIC TRANSCRIPTION MODULES AND USES THEREOF” (priority 2009, published 2013).
“Also recorded” adds a separate entry of the source. Where two headings read alike, the source gives them in different places.

Experiments:
[1] = test system: T98G glioma cell line; assay: ZNF238 and ZNF238-target mRNA expression by quantitative PCR in T98G cells; assay type: cell-based, human
Experimental: FIG. 12A, Graphical representation of the promoter of ZNF238. The region between −1800 and −3400 contains stretches of CpG islands. FIG. 12B, 5-Azacytidine induces expression of ZNF238. T98G cells were treated with 5-Azacytidine at the indicated concentrations for 3 days. Expression of ZNF238 was analyzed by quantitative PCR. […] HPRT was used as control for normalization.
Computational and expression predictions converged towards the identification of a highly vulnerable structure of the regulatory region controlling ZNF238 expression. The ZNF238 promoter/enhancer is unusually rich in evolutionarily conserved CpG islands (FIG. 12A), which are targeted by DNA methyltransferases leading to gene expression silencing. Methylation of regulatory DNA regions is a common mechanism in human cancer and is implicated in the constitutive silencing of tumor suppressor genes in malignant glioma (109; herein incorporated by reference in its entirety). Thus, whether promoter methylation induces silencing of ZNF238 was considered. Pharmacological inhibition of methylation with an inhibitor of DNA methyltransferases (5-Azacytidine) elevated the expression of ZNF238 mRNA in the T98G glioma cell line (FIG. 12B) and repressed the expression of SerpineH1 and CH3IRL1 (FIG. 12C), two mesenchymal genes predicted as ZNF238 targets by ARACNe (FIG. 1).

[2] = test system: C/EBPbeta-luciferase reporter; assay: C/EBPbeta-luciferase reporter screen in SNB19 glioma cells; assay type: cell-based, human
Experimental: SNB19 human glioma cells were stably transfected with the C/EBPbeta-driven luciferase plasmid (FIG. 36). Several clones were isolated and propagated. […] Cells were transfected with control siRNAs or siRNA oligonucleotides targeting C/EBPbeta (for example, SEQ ID NO: 228 or SEQ ID NO: 229). The control siRNA sequence is the Dharmacon ON-TARGETpIus Non-targeting Pool (Cat#: D-001810-10-20). Luciferase activity was measured on a luminometer and the results are shown after normalization with renilla.
A multimerized C/EBPbeta-luciferase reporter was stably introduced in SNB19 and a screening of ˜9,800 compounds was done to identify positive candidates.

[3] = test system: phospho-STAT3; assay: Inhibition of active STAT3 (phospho-STAT3); assay type: cell-based, human
[4] = test system: SNB19 human glioma cell line; assay: Gene expression profiling and GSEA after shRNA silencing of MR-TFs in SNB19; assay type: cell-based; details: shRNA knock-down in human glioma cells; for Enrichment of ATF2 regulon on TF-knock-down gene expression profile by GSEA, nES: Control TF regulon ATF2 (negative control), size 386; for Enrichment of SOX15 regulon on TF-knock-down gene expression profile by GSEA, nES: Control TF regulon SOX15 (negative control), size 213; for Enrichment of ZNF277 regulon on TF-knock-down gene expression profile by GSEA, nES: Control TF regulon ZNF277 (negative control), size 238; for Enrichment of ZNF500 regulon on TF-knock-down gene expression profile by GSEA, nES: Control TF regulon ZNF500 (negative control), size 469; for Enrichment of the MGES on genes downregulated after MR-TF knock-down, nES: MGES Enrich.; for Enrichment of C/EBPβ regulon on TF-knock-down gene expression profile by GSEA, nES: Module TF regulon C/EBPβ, size 209; for Enrichment of FosL2 regulon on TF-knock-down gene expression profile by GSEA, nES: Module TF regulon FosL2, size 403; for Enrichment of Runx1 regulon on TF-knock-down gene expression profile by GSEA, nES: Module TF regulon Runx1, size 490; for Enrichment of Stat3 regulon on TF-knock-down gene expression profile by GSEA, nES: Module TF regulon Stat3, size 366; for Enrichment of bHLH-B2 regulon on TF-knock-down gene expression profile by GSEA, nES: Module TF regulon bHLH-B2, size 226
Description: To test whether specific gene signatures were globally differentially regulated, we used the Gene Set Enrichment analysis method (A31; herein incorporated by reference in its entirety). In this method, the Kolmogorov-Smirnoff test is used to determine whether two gene lists are statistically correlated. In this case, one list includes genes on the microarray expression profile dataset, ranked by their differential expression statistics across two conditions (e.g. ectopically expressed Stat3C/C/EBPβ vs. control), from most over- to most underexpressed. The other list contains non-ranked genes in a specific signature (e.g. mesenchymal). This is very useful to detect, for instance, situations where signature genes can be differentially expressed as a whole, even though the fold-change can be small for each gene in isolation. In this case, a gene-by-gene test, such as a T-test, cannot reveal statistical significance. The algorithm was set to implement weighted scoring scheme and the enrichment score significance was assessed by 1000 permutation tests.
Next, lentivirus-mediated shRNA silencing of the five TFs (C/EBPβ, Stat3, bHLH-B2, FosL2, and Runx1) was performed in the SNB19 human glioma cell line, followed by gene expression profiling using HT-12v3 Illumina BeadArrays in triplicate.
RNA amplification for Array analysis was performed with Illumina TotalPrep RNA Amplification Kit (Ambion). 1.5 μg of amplified RNA was hybridized on Illumina HumanHT-12v3 or MouseWG-6 expression BeadChip according to the manufacturer's instructions. Hybridization data was obtained with an iScan BeadArray scanner (Illumina) and pre-processed by variance stabilization and robust spline normalization implemented in the lumi package under the R-system (Du, P., Kibbe, W. A. and Lin, S. M., (2008) ‘lumi: a pipeline for processing Illumina microarray’, Bioinformatics 24(13):1547-1548; herein incorporated by reference in its entirety).

[5] = test system: SNB19 glioma cells; assay: Intracranial xenograft of shRNA-transduced SNB19 glioma cells in immunocompromised mice; assay type: in vivo, mouse; details: SNB19 xenografted into striatum, 120 days from injection
Experimental: Next, it was considred whether loss of C/EBPβ and Stat3 in glioma cells reduced tumor aggressiveness in vitro and in vivo. […] Then, the impact of C/EBPβ and Stat3 knockdown for brain tumorigenesis in vivo was determined. SNB19 cells transduced with non-targeting control shRNA lentivirus or shRNA targeting C/EBPβ and/or Stat3 were xenografted into the striatum of immunocompromised mice. […] However, only one of four mice from the shC/EBPβ and one of five mice from the shC/EBPβ+shStat3 groups developed tumors after 120 days from the injection (FIG. 22B). […] Conversely, the single tumor in the shC/EBPβ+shStat3 group grew well circumscribed and was less angiogenic.
Intracranial injection of SNB19 glioma cell line and GBM-derived BTICs was performed in 6-8 weeks NOD/SCID mice (Charles River laboratories) in accordance with guidelines of the International Agency for Reserch on Cancer's Animal Care and Use Committee. Briefly, 48 h after lentiviral infection, 2×10^5 SNB19 or 3×10^5 BTICs were injected 2 mm lateral and 0.5 mm anterior to the bregma, 3 mm below the skull. Mice were monitored daily and sacrificed when neurological symptoms appeared. Kaplan-Meier survival curve of the mice injected with SNB19 glioma cells was generated using the DNA Statview software package (AbacusConcepts, Berkeley Calif.).

[6] = test system: GBM-BTICs and SNB19; assay: qRT-PCR of C/EBPβ and Stat3 mRNA after lentivirus-mediated shRNA silencing; assay type: cell-based, human
Experimental: For loss-of-function experiments, lentivirus-mediated shRNA silencing of C/EBPβ and Stat3 in the human glioma cell line SNB19 and in early-passage cultures of tumor cells derived from primary GBM was performed. The latter were grown in serum-free conditions, in the presence of the growth factors bFGF and EGF. These culture conditions preserve the tumor stem cell-like features of GBM-derived cells and propel the formation of GBM-like tumors after intracranial transplantation in immunodeficient mice {Lee, 2006; herein incorporated by reference in its entirety} (GBM-derived brain tumor initiating cells, GBM-BTICs, see FIG. 22 for the analysis of their tumor-initiating capacity). At least three replicates for each condition were produced and a global dataset of 89 individual samples was generated, including 55 knockdown experiments in human glioma cells and 34 ectopic expression experiments in mouse NSCs. Gene expression profiles of human samples were produced with the HT-12v3 Illumina BeadArrays (including 24,385 human genes), while murine samples were profiled on mouse-6V2 Illumina BeadArrays (including 20,311 mouse genes). 14,857 murine genes were mapped to human orthologs, using the homologene database (http://www.ncbi.nlm.nih.gov/homologene; herein incorporated by reference in its entirety). Of the 149 genes in the MGES, 118 could be mapped to murine genes represented on the mouse-6V2 array.
Reciprocal changes followed ectopic expression of the two TFs in C17.2 and NSC cells (Table 10) qRT-PCR values and microarray-based measurements were highly correlated for Stat3 but not for C/EBPβ mRNA (FIG. 24). Moreover, the Stat3C and C/EBPβ constructs used in the ectopic expression experiments in mouse NSCs lack the 3′ UTR sequence targeted by the Illumina probes. Thus, the qRT-PCR values for C/EBPβ and Stat3 were used, rather than the microarray measurements, as more accurate read-outs for their mRNA expression across the 89 samples.
RNA was prepared with RiboPure kit (Ambion), and used for first strand cDNA synthesis using random primers and SuperScriptll Reverse Transcriptase (Invitrogen). QRT-PCR was performed using Power SYBR Green PCR Master Mix (Applied Biosystems). QRT-PCR results were analyzed by the ΔΔCT method (Livak & Schmittgen, Methods 25:402, 2001; herein incorporated by reference in its entirety) using GAPDH or 18S as housekeeping genes.
Lentiviral expression vectors carrying shRNAs were purchased from Sigma. To generate lentiviral particles, each shRNA expression plasmid was co-transfected with pCMV-dR8.91 and pCMV-MD2.G vectors into human embryonic kidney 293T cells using Fugene 6 (Roche). Lentiviral infections were performed as described {Zhao, 2008; herein incorporated by reference in its entirety}.

Molecule	Enrichment of ATF2 regulon on TF-knock-down gene expression profile by GSEA, nES [4]	Enrichment of SOX15 regulon on TF-knock-down gene expression profile by GSEA, nES [4]	Enrichment of ZNF277 regulon on TF-knock-down gene expression profile by GSEA, nES [4]	Enrichment of ZNF500 regulon on TF-knock-down gene expression profile by GSEA, nES [4]	Enrichment of the MGES on genes downregulated after MR-TF knock-down, nES [4]	Enrichment of C/EBPβ regulon on TF-knock-down gene expression profile by GSEA, nES [4]	Enrichment of FosL2 regulon on TF-knock-down gene expression profile by GSEA, nES [4]	Enrichment of Runx1 regulon on TF-knock-down gene expression profile by GSEA, nES [4]	Enrichment of Stat3 regulon on TF-knock-down gene expression profile by GSEA, nES [4]	Enrichment of bHLH-B2 regulon on TF-knock-down gene expression profile by GSEA, nES [4]	mice that developed tumors [5]	C/EBPβ mRNA level relative to non-target shRNA transduced cells (fold ratio, median ± MAD) [6]	Stat3 mRNA level relative to non-target shRNA transduced cells (fold ratio, median ± MAD) [6]	other results
Nc1ncn([C@@H]2O[C@H](CO)[C@@H](O)[C@H]2O)c(=O)n1 [5-Azacytidine]	–	–	–	–	–	–	–	–	–	–	–	–	–	expression of CH3IRL1 [1]: repressed; expression of SerpineH1 [1]: repressed; expression of ZNF238 mRNA ([1]; 3 days, quantitative PCR): induces; also recorded: elevated; Expression of selected ZNF238 targets ([1]; HPRT normalization (FIG. 12C)): down-regulated
O=c1[nH]cc(F)c(=O)[nH]1 [5-fluorouracil]	–	–	–	–	–	–	–	–	–	–	–	–	–	inhibition of C/EBPb activity, C/EBPb gene reporter assay ([2]; reporter activity at 48 hr, various dosages (FIG. 38A, 39A)): inhibition
COc1cc([C@@H]2c3cc4c(cc3[C@@H](O[C@@H]3O[C@@H]5CO[C@@H](C)O[C@H]5[C@H](O)[C@H]3O)[C@H]3COC(=O)[C@H]23)OCO4)cc(OC)c1O [etoposide]	–	–	–	–	–	–	–	–	–	–	–	–	–	inhibition of CCAAT/enhancer-binding protein (CEBP) luciferase reporter ([2]; pilot screen, microsource library (2000 compounds), SNB19): inhibit; inhibition of the active form of STAT3 (phospho-STAT3) [3]: inhibit
shC/EBPβ: lentiviral shRNA specific for C/EBPβ purchased from Sigma (TRCN0000007442, SEQ ID NO: 225) (CCGGCGACTTCCTCTCCGACCTCTTCTCGAGAAGAGGTCGGAGAGGAAGTCGTTTTT)	1.54	0.28	−0.79	−0.24	3.23	1.91	3.83	0.55	2.49	1.74	one of four	0.26 ± 0.119	1.13 ± 0.43	C/EBPβ mRNA level relative to non-target shRNA transduced cells (fold ratio, median ± MAD) ([6]; listed as C/EBPβ shRNA): 0.26
shStat3: lentiviral shRNA specific for Stat3 purchased from Sigma (TRCN0000020843, SEQ ID NO: 224) (CCGGGCAAAGAATCACATGCCACTTCTCGAGAAGTGGCATGTGATTCTTTGCTTTTT)	−0.24	−2.81	−0.55	0.20	3.59	2.43	4.98	2.41	1.78	0.59	all mice	0.87 ± 0.111	0.205 ± 0.052	Stat3 mRNA level relative to non-target shRNA transduced cells (fold ratio, median ± MAD) ([6]; listed as Stat3-shRNA): 0.205
